Reference: PMC7147261, “Selective Antibacterial Activity and Lipid Membrane Interactions of Arginine-Rich Amphiphilic Peptides” (ACS Applied Bio Materials, 2020)
Ends that are not written are not given here.

Tests used:
[1] = system: 161br human skin fibroblasts; experiment: in vitro; type: cell-based; details: 72 h, 0.05 wt %
Description: (§1) The cytotoxicity of both R3F3 and R4F4 was examined. In vitro cell culture was conducted using 161Br (European Collection of Authenticated Cell Cultures, ECACC) cells, a human skin fibroblast cell line. Cells were cultured in EMEM (Eagle’s minimum essential medium), with 2 mM glutamine, enriched with 15% fetal bovine serum (FBS) and 1% nonessential amino acids (NEAA). Cells were maintained in a humidified atmosphere of 37 °C, 5% CO2.
(§2) Potential cytotoxicity effects were examined using the MTT (3-(4,5-dimethylthiazol-2-yl)-2,5-diphenyltetrazolium bromide) assay. The peptides were dissolved in complete media. Cells were seeded into a 96-well plate at 4 × 10^4 cells/mL and allowed to adhere for 24 h in 100 μL complete medium. After this, 100 μL of either complete media and/or peptide solution was added, to give either control solution, or solutions of peptide between the concentrations of 0.0625–4 mg/mL.
(§3) Cells were incubated for 67 h. After this, 20 μL MTT (5 mg/mL, in PBS) was added to each well plate and allowed to incubate for 5 h. After a further 5 h (72 h total), the solution was removed from the wells and replaced with 100 μL of DMSO per well, which dissolves the formazan crystals. Plates were incubated for 30 min, and then analyzed using a UV microplate reader (λ = 570 nm). Results are reported as a percentage cell viability compared to control (untreated) values, and fitted to a sigmoidal function using Origin Lab as a guide to the eye.
(§4) Figure S2. CD data for a) R3F3 and b) R4F4 with DPPG (concentrations indicated) .
(§5) Figure S3. Cytotoxicity profiles from MTT assays, where 161br Human fibroblasts were exposed to
(§6) (a) R3F3 and (b) R4F4 for 72 hours. Control solutions were prepared by incubating cells with complete
(§7) media. Results are reported as a percentage compared to the control solutions. Error bars are the
(§8) standard deviation of 3 biological replicates (with 3 technical replicates pe r assay). IC50 values
(§9) (vertical blue dashed lines) were calculated in Origin using sigmoidal fits to the viability data (dashed […]

[2] = in vitro; type: cell-based, human; details: human
Description: as §1, §2, §3, §4, §5, §6, §7, §8, §9

[3] = previously reported; cited from earlier work
Description: The two “blocky” surfactant-like peptides […] and […] are both able to self-assemble in aqueous solution at concentrations in excess of critical values, obtained from fluorescence probe assays. The cac = 0.3 wt % (≡ 3.2 mM) for […] is higher than that previously obtained for the compositional homologue peptide […], for which the cac = 2.3 mM.[16]

For RRRFFF [R3F3], the “viability of human skin fibroblasts” value [1] was 77% and the IC50 at 72 h [2] was 4.31 mM.
In the case of “RFRFRFRF [[RF]4, previously studied oligopeptide of alternating RF motifs, compositional homologue of R4F4]”, the “cac of compositional homologue peptide” value [3] is given as 0.34 mM.
With RRRRFFFF [R4F4] the “viability of human skin fibroblasts” value [1] was 81% and the IC50 at 72 h [2] was 2.15 mM.
For “RFRFRF [previously studied alternating RF peptide, compositional homologue of R3F3]”, the “cac of compositional homologue peptide” value [3] is listed as 2.3 mM.
